# Reference: article PMC10951960, “CGP7930 - An allosteric modulator of GABABRs, GABAARs and inwardly-rectifying potassium channels” (Neuropharmacology, 2023)
# Tested on: GABAAR-mediated tonic inhibition in hippocampal neurons
# Test: tonic inhibition: baseline holding current and RMS noise in cultured hippocampal neurons
# Format: cell-based, rat
# Experimental: Briefly, single cells derived from dissected hippocampi were seeded onto glass coverslips coated with poly-D-lysine in a plating medium containing minimum essential media with 5% v/v heat-inactivated FCS, 5% v/v heat-inactivated horse serum, penicillin-G/streptomycin (100 U/100 μg/ml), 2 mM L-glutamine, and 20 mM glucose. Two hr after plating the media was changed to a Neurobasal-A based maintenance media supplemented with 1% v/v B-27, penicillin-G/streptomycin (100 U/100 μg/ml), 0.5% v/v Glutamax and 35 mM glucose.
# Spontaneous inhibitory postsynaptic currents (sIPSCs) were recorded from cultured hippocampal neurons at 12–17 days in vitro (DIV). […] For recording K^+ currents in GIRK cells and neurons, the bath solution was switched to a high K^+ solution containing 25 mM KCl and reduced NaCl (120 mM), to shift the equilibrium potential for K^+ from approximately −90 to −47 mV, thus reversing the direction of K^+ current flux to net inward. GABABR-activated K^+ currents in cultured neurons were recorded in the additional presence of 2 mM kynurenic acid and 20 μM picrotoxin.
# Borosilicate glass electrodes (3–5 MΩ) were filled with a K^+-based internal solution for recording GIRK currents containing (mM): 120 KCl, 2 MgCl2, 11 EGTA, 30 KOH, 10 HEPES, 1 CaCl2, 1 GTP, 2 ATP, 14 creatine phosphate, pH 7.0. GABAAR currents and sIPSCs were recorded with a Cs-based internal solution containing (mM): 120 CsCl, 1 MgCl2, 11 EGTA, 30 KOH, 10 HEPES, 1 CaCl2, and 2 K2ATP; pH 7.2. […] Cells were held at −60 mV (sIPSCs) or −60/−70 mV (K^+ currents). Voltage clamp recordings were undertaken after optimising series resistance (Rs, <10 MΩ) and compensating for the whole-cell membrane capacitance. Membrane currents were filtered at 5 kHz (−3 dB, 6th pole Bessel, 36 dB/octave) and stored for analysis with Clampex 10.
# For tonic inhibition, to determine the average holding currents, a 30 s continuous holding current recording was sampled every 1 s, discarding epochs that coincided with sIPSCs. Any effect of CGP7930 or bicuculline on the holding current was defined by subtracting the average holding currents in control and during drug application. The baseline root-mean-square current variance (RMS) was calculated before and during drug treatment. This was estimated from a continuous (20 s) current recording, sampled every 100 ms. The median current was calculated every 5 s and values more than twice the standard deviation from the median (usually due to IPSCs) were eliminated. All drugs were applied using a U-tube rapid drug application system, or more slowly via bath perfusion.
# We assessed the effect of CGP7930 on tonic inhibition in hippocampal cultured neurons.
smiles,measurement,setting,value
"CC(C)(CO)Cc1cc(C(C)(C)C)c(O)c(C(C)(C)C)c1 [CGP7930, 3-(3′,5′-Di-tert-butyl-4′-hydroxy) phenyl-2,2-dimethylpropanol]",Membrane current RMS noise,100 nM,6.4 ± 0.4 (9) pA
same,Membrane current RMS noise,500 nM,8.6 ± 0.9 (9) pA
same,Tonic currents (change in baseline holding current),500 nM to 1 μM,−441.6 ± 124.7 (9) pA
same,Membrane current RMS noise,1 μM,12.7 ± 1.7 (9) pA
same,Membrane current RMS noise,1 μM + Bic (50 μM bicuculline),5.7 ± 0.5 (9) pA
same,Tonic currents (change in baseline holding current),1 μM CGP7930 to 50 μM bicuculline (Bic),372.0 ± 88.5 (9) pA
same,Tonic currents (change in baseline holding current),100–500 nM,−115.6 ± 37.8 (9) pA
same,Tonic currents (change in baseline holding current),Control to 100 nM,−21.41 ± 5.4 (9) pA
